The record followed here is patent US20090325964A1, “Piperazine Metabotropic Glutamate Receptor 5 (MGLUR5) Negative Allosteric Modulators For Anxiety/Depression” (Wyeth, priority 2008, published 2009).

Bounds are passed on as bounds.

One experiment has as its target T1, rat mGluR5 receptor (Rattus norvegicus, UniProt P31424).
T1 construct: expressed in transfected cells; host or cells: HEK-293
As to the kind of experiment: [3H]-MPEP displacement binding assay, HEK-293 cell membranes expressing rat mGluR5. The following applies: [3H]-MPEP displacement, rat mGluR5; read-out: Median Ki. In short, it runs like this:
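Membranes from HEK-293 cells expressing rat mGluR5 (12-25 μg protein), incubated 60 min at room temperature with 4 nM [3H]-MPEP in 50 mM Tris pH 7.5, then filtered. Nonspecific binding defined with 10 μM MPEP.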

Another experiment deals with mGluR5 (Rattus norvegicus, UniProt P31424). As to the kind of experiment: IC50 column under 'Biological Activity' (assay not identified in the shown text; not the binding Ki).
mGluR5, sequence (P31424 21-1203): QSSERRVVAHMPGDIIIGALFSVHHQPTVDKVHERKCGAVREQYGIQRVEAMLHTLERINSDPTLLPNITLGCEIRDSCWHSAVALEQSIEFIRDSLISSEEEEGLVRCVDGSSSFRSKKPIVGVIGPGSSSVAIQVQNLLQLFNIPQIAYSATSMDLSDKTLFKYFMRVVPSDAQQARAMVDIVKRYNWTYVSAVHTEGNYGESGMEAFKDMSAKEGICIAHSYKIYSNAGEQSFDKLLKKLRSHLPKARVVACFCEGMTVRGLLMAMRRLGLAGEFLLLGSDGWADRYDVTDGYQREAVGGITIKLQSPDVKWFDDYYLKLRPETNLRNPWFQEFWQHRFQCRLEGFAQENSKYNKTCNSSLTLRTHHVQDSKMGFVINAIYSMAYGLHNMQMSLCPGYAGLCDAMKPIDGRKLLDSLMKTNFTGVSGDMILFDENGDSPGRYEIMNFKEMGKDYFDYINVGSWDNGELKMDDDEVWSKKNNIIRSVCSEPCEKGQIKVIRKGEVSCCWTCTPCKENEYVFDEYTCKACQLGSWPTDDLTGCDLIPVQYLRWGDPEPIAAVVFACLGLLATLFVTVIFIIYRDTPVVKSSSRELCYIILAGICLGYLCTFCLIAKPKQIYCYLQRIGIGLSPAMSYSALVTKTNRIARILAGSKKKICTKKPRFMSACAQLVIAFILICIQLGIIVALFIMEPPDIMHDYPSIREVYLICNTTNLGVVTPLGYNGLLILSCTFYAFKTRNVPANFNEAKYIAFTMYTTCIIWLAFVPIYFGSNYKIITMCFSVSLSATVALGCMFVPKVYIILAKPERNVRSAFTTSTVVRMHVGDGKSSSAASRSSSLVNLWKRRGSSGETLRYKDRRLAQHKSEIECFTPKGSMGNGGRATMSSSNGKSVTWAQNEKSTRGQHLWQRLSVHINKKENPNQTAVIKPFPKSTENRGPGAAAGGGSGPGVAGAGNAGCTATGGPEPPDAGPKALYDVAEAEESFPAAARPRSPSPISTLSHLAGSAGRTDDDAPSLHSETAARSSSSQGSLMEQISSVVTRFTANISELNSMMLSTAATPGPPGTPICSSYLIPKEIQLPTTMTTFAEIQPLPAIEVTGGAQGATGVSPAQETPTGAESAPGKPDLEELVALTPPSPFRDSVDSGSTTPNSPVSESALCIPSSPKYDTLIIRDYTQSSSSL

T1 sequence (P31424 21-1203): as above

Consider `COc1ccc(C(=O)N2CCN(c3ccc([N+](=O)[O-])cc3)CC2)cc1C#Cc1ccccn1` [Compound 232, 1-[4-methoxy-3-(pyridin-2-ylethynyl)benzoyl]-4-(4-nitrophenyl)piperazine], for which, on rat mGluR5 receptor, the inhibition constant Ki amounted to 96 nM. In addition, the IC50 at mGluR5 was over 1000 nM.

As for `COc1ccc(N2CCN(C(=O)c3ccc(OC)c(C#Cc4ccccn4)c3)CC2)cc1` [Compound 233, 1-(4-methoxyphenyl)-4-[4-methoxy-3-(pyridin-2-ylethynyl)benzoyl]piperazine], on rat mGluR5 receptor, the inhibitory constant (Ki) is 66 nM. The concentration for half-maximal inhibition (IC50) at mGluR5 was over 1000 nM.

As for `COc1ccc(C(=O)N2CCN(S(=O)(=O)c3ccc4c(c3)OCCO4)CC2)cc1C#Cc1ccccn1` [Compound 235, 1-(2,3-dihydro-1,4-benzodioxin-6-ylsulfonyl)-4-[4-methoxy-3-(pyridin-2-ylethynyl)benzoyl]piperazine], the Ki on rat mGluR5 receptor came out at 75 nM. The compound further returned an IC50 at mGluR5 of over 1000 nM.

Turning to `COc1ccc(C(=O)N2CCN(c3ccncc3)CC2)cc1C#Cc1ccccn1` [Compound 236, 1-[4-methoxy-3-(pyridin-2-ylethynyl)benzoyl]-4-pyridin-4-ylpiperazine], the Ki on rat mGluR5 receptor turned out to be 78 nM. For the same compound, at mGluR5, the IC50 is over 1000 nM.

On to `COc1ccc(C(=O)N2CCN(c3ccc(C(C)=O)cc3)CC2)cc1C#Cc1ccccn1` [Compound 237, 1-(4-{4-[4-methoxy-3-(pyridin-2-ylethynyl)benzoyl]piperazin-1-yl}phenyl)ethanone], for which, on rat mGluR5 receptor, the Ki came to 21 nM. The IC50 at mGluR5 was 119 nM.

`COc1cccc(N2CCN(C(=O)c3ccc(OC)c(C#Cc4ccccn4)c3)CC2)c1` [Compound 241, 1-(3-methoxyphenyl)-4-[4-methoxy-3-(pyridin-2-ylethynyl)benzoyl]piperazine]: at rat mGluR5 receptor, the Ki was 15 nM. Moreover, the 50% inhibitory concentration (IC50) on mGluR5 stood at 81 nM.

With `COc1ccc(C(=O)N2CCN(S(=O)(=O)c3ccc(Cl)cc3)CC2)cc1C#Cc1ccccn1` [Compound 243, 1-[(4-chlorophenyl)sulfonyl]-4-[4-methoxy-3-(pyridin-2-ylethynyl)benzoyl]piperazine], the inhibition constant (Ki) on rat mGluR5 receptor is 14 nM. Also, the IC50 on mGluR5 is 154 nM.

In the case of `COc1ccc(C(=O)N2CCN(C(=O)c3ccccc3)CC2)cc1C#Cc1ccccn1` [Compound 244, 1-benzoyl-4-[4-methoxy-3-(pyridin-2-ylethynyl)benzoyl]piperazine], on rat mGluR5 receptor, the inhibitory constant (Ki) worked out at 54 nM. This compound also returned an IC50 at mGluR5 of 237 nM.

Consider `CCS(=O)(=O)N1CCN(C(=O)c2ccc(OC)c(C#Cc3ccccn3)c2)CC1` [Compound 245, 1-(ethylsulfonyl)-4-[4-methoxy-3-(pyridin-2-ylethynyl)benzoyl]piperazine], for which, at rat mGluR5 receptor, the Ki turned out to be 231 nM. Moreover, the concentration for half-maximal inhibition (IC50) on mGluR5 was determined as 344 nM.

Regarding `COc1ccc(C(=O)N2CCN(c3nccs3)CC2)cc1C#Cc1ccccn1` [Compound 247, 1-[4-methoxy-3-(pyridin-2-ylethynyl)benzoyl]-4-(1,3-thiazol-2-yl)piperazine], the inhibitory constant (Ki) at rat mGluR5 receptor stood at 17 nM. The compound also yielded a 50% inhibitory concentration (IC50) on mGluR5 of 85 nM.

`COc1ccc(C(=O)N2CCN(C(=O)C3CC3)CC2)cc1C#Cc1ccccn1` [Compound 248, 1-(cyclopropylcarbonyl)-4-[4-methoxy-3-(pyridin-2-ylethynyl)benzoyl]piperazine]: on rat mGluR5 receptor, the inhibitory constant (Ki) came to 83 nM. The 50% inhibitory concentration (IC50) at mGluR5 was over 1000 nM.

Regarding `COc1ccc(C(=O)N2CCN(c3ccccc3)CC2C)cc1C#Cc1ccccn1` (centres unmarked) [Compound 250, 1-[4-methoxy-3-(pyridin-2-ylethynyl)benzoyl]-2-methyl-4-phenylpiperazine], on rat mGluR5 receptor, the Ki was 24 nM. The compound further came in with an IC50 on mGluR5 of 96 nM.

Consider `COc1ccc(C(=O)N2CCN(c3noc4ccccc34)CC2)cc1C#Cc1ccccn1` [Compound 251, 3-{4-[4-methoxy-3-(pyridin-2-ylethynyl)benzoyl]piperazin-1-yl}-1,2-benzisoxazole], for which, at rat mGluR5 receptor, the inhibitory constant (Ki) amounted to 6 nM. This compound also had an IC50 at mGluR5 of 25 nM.

Consider `COc1ccc(C(=O)N2CCN(c3ccc(C#N)cn3)CC2)cc1C#Cc1ccccn1` [Compound 252, 6-{4-[4-methoxy-3-(pyridin-2-ylethynyl)benzoyl]piperazin-1-yl}nicotinonitrile], for which the inhibition constant Ki at rat mGluR5 receptor was 33 nM. At mGluR5, the half-inhibitory concentration (IC50) was 192 nM.

On to `COc1ccc(C(=O)N2CCN(S(=O)(=O)c3ccc(C)cc3)CC2)cc1C#Cc1ccccn1` [Compound 253, 1-[4-methoxy-3-(pyridin-2-ylethynyl)benzoyl]-4-[(4-methylphenyl)sulfonyl]piperazine], for which the Ki on rat mGluR5 receptor was 21 nM. The same compound had an IC50 at mGluR5 of 180 nM.

For `COc1ccc(C(=O)N2CCN(c3cccc(Cl)n3)CC2)cc1C#Cc1ccccn1` [Compound 255, 1-(6-chloropyridin-2-yl)-4-[4-methoxy-3-(pyridin-2-ylethynyl)benzoyl]piperazine], the Ki at rat mGluR5 receptor amounted to 9 nM. Besides, the IC50 on mGluR5 came to 129 nM.

Regarding `COc1ccc(C(=O)N2CCN(c3nc4ccccc4o3)CC2)cc1C#Cc1ccccn1` [Compound 257, 2-{4-[4-methoxy-3-(pyridin-2-ylethynyl)benzoyl]piperazin-1-yl}-1,3-benzoxazole], on rat mGluR5 receptor, the inhibition constant (Ki) was 38 nM. On mGluR5, this compound returned a concentration for half-maximal inhibition (IC50) of 110 nM.

As for `COc1ccc(C(=O)N2CCN(C(=O)c3ccco3)CC2)cc1C#Cc1ccccn1` [Compound 258, 1-(2-furoyl)-4-[4-methoxy-3-(pyridin-2-ylethynyl)benzoyl]piperazine], the Ki at rat mGluR5 receptor came out at 41 nM. On mGluR5, this compound gave a concentration for half-maximal inhibition (IC50) of 95 nM.

Regarding `COc1ccc(C(=O)N2CCN(Cc3ccc4c(c3)OCO4)CC2)cc1C#Cc1ccccn1` [Compound 259, 1-(1,3-benzodioxol-5-ylmethyl)-4-[4-methoxy-3-(pyridin-2-ylethynyl)benzoyl]piperazine], on rat mGluR5 receptor, the Ki is 38 nM. The compound also yielded an IC50 on mGluR5 of 157 nM.

Turning to `COc1ccc(C(=O)N2CCN(c3ncc(Br)cn3)CC2)cc1C#Cc1ccccn1` [Compound 262, 5-bromo-2-{4-[4-methoxy-3-(pyridin-2-ylethynyl)benzoyl]piperazin-1-yl}pyrimidine], the Ki at rat mGluR5 receptor is 17 nM. Besides, the IC50 on mGluR5 stood at 148 nM.

As for `COc1ccc(C(=O)N2CCN(C(=O)c3ccc(OC)c(C#Cc4ccccn4)c3)CC2)cc1` [Compound 265, 1-(4-methoxybenzoyl)-4-[4-methoxy-3-(pyridin-2-ylethynyl)benzoyl]piperazine], the Ki on rat mGluR5 receptor is 54 nM. For the same compound, the concentration for half-maximal inhibition (IC50) at mGluR5 is over 1000 nM.

Regarding `COc1ccc(C(=O)N2CCN(Cc3ccccc3F)CC2)cc1C#Cc1ccccn1` [Compound 266, 1-(2-fluorobenzyl)-4-[4-methoxy-3-(pyridin-2-ylethynyl)benzoyl]piperazine], the Ki at rat mGluR5 receptor amounted to 33 nM. In addition, the concentration for half-maximal inhibition (IC50) at mGluR5 was over 1000 nM.

On to `COc1ccc(C(=O)N2CCN(Cc3cccc(F)c3)CC2)cc1C#Cc1ccccn1` [Compound 267, 1-(3-fluorobenzyl)-4-[4-methoxy-3-(pyridin-2-ylethynyl)benzoyl]piperazine], for which, on rat mGluR5 receptor, the Ki was determined as 57 nM. At mGluR5, this compound came in with an IC50 of 167 nM.

For the compound `COc1ccc(C(=O)N2CCN(Cc3ccc(F)cc3)CC2)cc1C#Cc1ccccn1` [Compound 268, 1-(4-fluorobenzyl)-4-[4-methoxy-3-(pyridin-2-ylethynyl)benzoyl]piperazine], the Ki at rat mGluR5 receptor came out at 57 nM. The compound also displayed a half-inhibitory concentration (IC50) at mGluR5 of 219 nM.

In the case of `COc1ccc(C(=O)N2CCN(Cc3cccc(Cl)c3)CC2)cc1C#Cc1ccccn1` [Compound 274, 1-(3-chlorobenzyl)-4-[4-methoxy-3-(pyridin-2-ylethynyl)benzoyl]piperazine], on rat mGluR5 receptor, the Ki amounted to 89 nM. The concentration for half-maximal inhibition (IC50) at mGluR5 was 316 nM.

For orientation: Ki means the dissociation constant of the complex between target and ligand, obtained from inhibition or displacement. As a reminder, the IC50 is the concentration at which inhibition is half-maximal. Higher therefore signals a need for much substance.
